Laboratory results published in patent US20250186541A1, “DLL3 TARGETING PEPTIDES AND CONSTRUCTS THEREOF” (MARIANA ONCOLOGY INC., priority 2023, published 2025).
Numbered stars: 1 amine (or outer) side, 2 acyl side, 3 side chain; on linkers, the order of the positions; unused ones are H or OH. Bridge positions count the residues as written; N and C are the ends. Square brackets hold non-standard residues; d marks the D form. Peptide text beside a SMILES is read from it. * marks the point of attachment. Ala(1-CH2CO2H-4-piperidyl) = N[C@@H](CC1CCN(CC(=O)O)CC1)C(=O)O; Ala(piperidin-4-yl) = O=C([C@H](CC1CCN([*:3])CC1)N[*:1])[*:2]; DOTA = O=C(O)CN1CCN(CC(=O)O)CCN(CC(=O)*)CCN(CC(=O)O)CC1; Phe(4-CH2NH2) = NCc1ccc(C[C@H](N)C(=O)O)cc1; 1Nal = N[C@@H](Cc1cccc2ccccc12)C(=O)O; 2Nal = N[C@@H](Cc1ccc2ccccc2c1)C(=O)O; tBuAla = CC(C)(C)C[C@H](N)C(=O)O; dAllylGly = C=CC[C@@H](N)C(=O)O; αMeD = C[C@](N)(CC(=O)O)C(=O)O; AllylGly = C=CC[C@H](N)C(=O)O; αMeP = C[C@@]1(C(=O)O)CCCN1

molecular target: T1, human DLL3 (Homo sapiens, UniProt Q9NYJ7); experiment: Affinity determination by Surface Plasmon Resonance (SPR), Biacore, 1:1 binding model; details: biotinylated human DLL3 on streptavidin chip, 25° C.; NB = nonbinding
T1 construct: biotin (biotinylated)
T1 sequence (Q9NYJ7 27-618): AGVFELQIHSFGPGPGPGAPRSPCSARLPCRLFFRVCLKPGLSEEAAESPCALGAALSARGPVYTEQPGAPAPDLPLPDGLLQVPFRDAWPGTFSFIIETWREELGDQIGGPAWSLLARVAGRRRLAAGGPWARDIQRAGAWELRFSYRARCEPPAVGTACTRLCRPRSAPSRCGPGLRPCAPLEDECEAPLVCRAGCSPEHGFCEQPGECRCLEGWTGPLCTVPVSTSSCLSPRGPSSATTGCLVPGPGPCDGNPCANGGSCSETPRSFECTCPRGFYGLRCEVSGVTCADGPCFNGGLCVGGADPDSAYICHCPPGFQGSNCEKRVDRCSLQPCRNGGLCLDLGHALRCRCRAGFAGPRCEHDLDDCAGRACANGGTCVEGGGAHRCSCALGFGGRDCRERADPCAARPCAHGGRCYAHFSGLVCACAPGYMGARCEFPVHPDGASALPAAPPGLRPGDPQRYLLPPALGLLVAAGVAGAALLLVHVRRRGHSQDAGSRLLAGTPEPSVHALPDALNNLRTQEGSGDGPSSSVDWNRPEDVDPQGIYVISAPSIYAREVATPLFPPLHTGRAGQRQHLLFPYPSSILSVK
Method in brief: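 SPR with biotinylated human DLL3 captured on a streptavidin chip, with a reference surface subtracted. Samples were injected at several concentrations at 100 μL/min in phosphate buffer with 137 mM NaCl, 2.7 mM KCl, 0.05% P20 and 2% DMSO. Kinetic and affinity constants came from a 1:1 binding fit.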

| Compound | Kd [nM] | SPR KD (nM) |
| --- | --- | --- |
| CC(=O)N[C@@H](CC1CCNCC1)C(=O)N[C@@H](CO)C(=O)N[C@@H](CC(=O)O)C(=O)N[C@H]1C/C=C\C[C@@H](C(=O)N2CCC[C@@]2(C)C(=O)N[C@@H](Cc2ccccc2)C(=O)N[C@@H](CC(=O)O)C(N)=O)NC(=O)[C@H](CC(N)=O)NC(=O)[C@H](Cc2ccc3ccccc3c2)NC(=O)[C@H](Cc2ccc(CNC(=O)CN3CCN(CC(=O)O)CCN(CC(=O)O)CCN(CC(=O)O)CC3)cc2)NC(=O)[C@H](CC(C)(C)C)NC(=O)[C@H](Cc2cccc3ccccc23)NC1=O [compound 201, Ac-[3-(4-piperidinyl)-Ala]-S-D-AllyG(4)-(1Nal)-(t-Bu-Ala)-[PAF(DOTA)]-(2Nal)-N-AllyG(4)-(aMe-P)-F-D-CONH2] (Ac-[Ala(piperidin-4-yl)]SD[AllylGly][1Nal][tBuAla][Phe(4-CH2NH2)](DOTA)[2Nal]N[AllylGly][αMeP]FD-NH2; staple (Z) 4-10) | 14.6 |  |
| CC(=O)N[C@@H](CC1CCNCC1)C(=O)N[C@@H](CO)C(=O)N[C@@H](CC(=O)O)C(=O)N[C@H]1C/C=C/C[C@@H](C(=O)N2CCC[C@@]2(C)C(=O)N[C@@H](Cc2ccccc2)C(=O)N[C@@H](CC(=O)O)C(N)=O)NC(=O)[C@H](CC(N)=O)NC(=O)[C@H](Cc2ccc3ccccc3c2)NC(=O)[C@H](Cc2ccc(CNC(=O)CN3CCN(CC(=O)O)CCN(CC(=O)O)CCN(CC(=O)O)CC3)cc2)NC(=O)[C@H](CC(C)(C)C)NC(=O)[C@H](Cc2cccc3ccccc23)NC1=O [compound 202, Ac-[3-(4-piperidinyl)-Ala]-S-D-AllyG(4)-(1Nal)-(t-Bu-Ala)-[PAF(DOTA)]-(2Nal)-N-AllyG(4)-(aMe-P)-F-D-CONH2] (Ac-[Ala(piperidin-4-yl)]SD[AllylGly][1Nal][tBuAla][Phe(4-CH2NH2)](DOTA)[2Nal]N[AllylGly][αMeP]FD-NH2; staple (E) 4-10) | 0.53 |  |
| CC(=O)N[C@H](C)C(=O)N[C@@H](CO)C(=O)N[C@@H](CC(=O)O)C(=O)N[C@H]1C/C=C/C[C@@H](C(=O)N2CCC[C@@]2(C)C(=O)N[C@@H](Cc2ccccc2)C(=O)N[C@@H](CC(=O)O)C(N)=O)NC(=O)[C@H](CC(N)=O)NC(=O)[C@H](Cc2ccc3ccccc3c2)NC(=O)[C@H](Cc2ccc(CNC(=O)CN3CCN(CC(=O)O)CCN(CC(=O)O)CCN(CC(=O)O)CC3)cc2)NC(=O)[C@H](CC2CCNCC2)NC(=O)[C@H](Cc2cccc3ccccc23)NC1=O [compound 204, Ac-(D-Ala)-S-D-AllyG(4)-(1Nal)-[3-(4-piperidinyl)-Ala]-[PAF(DOTA)]-(2Nal)-N-AllyG(4)-(aMe-P)-F-D-CONH2] (Ac-[dA]SD[AllylGly][1Nal][Ala(piperidin-4-yl)][Phe(4-CH2NH2)](DOTA)[2Nal]N[AllylGly][αMeP]FD-NH2; staple (E) 4-10) | 1.3 |  |
| CC(=O)N[C@@H](CC1CCN(CC(=O)O)CC1)C(=O)N[C@@H](CO)C(=O)N[C@@](C)(CC(=O)O)C(=O)N[C@H]1C/C=C\C[C@@H](C(=O)N2CCC[C@@]2(C)C(=O)N[C@@H](Cc2ccccc2)C(=O)N[C@@H](CC(=O)O)C(N)=O)NC(=O)[C@H](CC(N)=O)NC(=O)[C@H](Cc2ccc3ccccc3c2)NC(=O)[C@H](Cc2ccc(CNC(=O)CN3CCN(CC(=O)O)CCN(CC(=O)O)CCN(CC(=O)O)CC3)cc2)NC(=O)[C@H](CC(C)(C)C)NC(=O)[C@H](Cc2cccc3ccccc23)NC1=O [compound 207, Ac-[3-(piperidinyl-4-CH2CO2H)-Ala]-S-(aMe-Asp)-AllyG(4)-(1Nal)-(t-Bu-Ala)-[PAF(DOTA)]-(2Nal)-N-AllyG(4)-(aMe-P)-F-D-CONH2] (Ac-[Ala(1-CH2CO2H-4-piperidyl)]S[αMeD][AllylGly][1Nal][tBuAla][Phe(4-CH2NH2)](DOTA)[2Nal]N[AllylGly][αMeP]FD-NH2; staple (Z) 4-10) | 31 |  |
| CC(=O)N[C@@H](CC1CCN(CC(=O)O)CC1)C(=O)N[C@@H](CO)C(=O)N[C@@](C)(CC(=O)O)C(=O)N[C@H]1C/C=C/C[C@@H](C(=O)N2CCC[C@@]2(C)C(=O)N[C@@H](Cc2ccccc2)C(=O)N[C@@H](CC(=O)O)C(N)=O)NC(=O)[C@H](CC(N)=O)NC(=O)[C@H](Cc2ccc3ccccc3c2)NC(=O)[C@H](Cc2ccc(CNC(=O)CN3CCN(CC(=O)O)CCN(CC(=O)O)CCN(CC(=O)O)CC3)cc2)NC(=O)[C@H](CC(C)(C)C)NC(=O)[C@H](Cc2cccc3ccccc23)NC1=O [compound 208, Ac-[3-(piperidinyl-4-CH2CO2H)-Ala]-S-(aMe-Asp)-AllyG(4)-(1Nal)-(t-Bu-Ala)-[PAF(DOTA)]-(2Nal)-N-AllyG(4)-(aMe-P)-F-D-CONH2] (Ac-[Ala(1-CH2CO2H-4-piperidyl)]S[αMeD][AllylGly][1Nal][tBuAla][Phe(4-CH2NH2)](DOTA)[2Nal]N[AllylGly][αMeP]FD-NH2; staple (E) 4-10) | 0.386 |  |
| CC(=O)N[C@@H](CC1CCNCC1)C(=O)N[C@@H](CO)C(=O)N[C@@H](CC(=O)O)C(=O)N[C@H]1CCCC[C@@H](C(=O)N2CCC[C@@]2(C)C(=O)N[C@@H](Cc2ccccc2)C(=O)N[C@@H](CC(=O)O)C(N)=O)NC(=O)[C@H](CC(N)=O)NC(=O)[C@H](Cc2ccc3ccccc3c2)NC(=O)[C@H](Cc2ccc(CNC(=O)CN3CCN(CC(=O)O)CCN(CC(=O)O)CCN(CC(=O)O)CC3)cc2)NC(=O)[C@H](CC(C)(C)C)NC(=O)[C@H](Cc2cccc3ccccc23)NC1=O [compound 209, Ac-[3-(4-piperidinyl)-Ala]-S-D-AllyG(4)*-(1Nal)-(t-Bu-Ala)-[PAF(DOTA)]-(2Nal)-N-AllyG(4)*-(aMe-P)-F-D-CONH2] | 0.591 |  |
| CC(=O)N[C@@H](CC1CCNCC1)C(=O)N[C@@H](CO)C(=O)N[C@@H](CC(=O)O)C(=O)N[C@@H]1C/C=C/C[C@@H](C(=O)N2CCC[C@@]2(C)C(=O)N[C@@H](Cc2ccccc2)C(=O)N[C@@H](CC(=O)O)C(N)=O)NC(=O)[C@H](CC(N)=O)NC(=O)[C@H](Cc2ccc3ccccc3c2)NC(=O)[C@H](Cc2ccc(CNC(=O)CN3CCN(CC(=O)O)CCN(CC(=O)O)CCN(CC(=O)O)CC3)cc2)NC(=O)[C@H](CC(C)(C)C)NC(=O)[C@H](Cc2cccc3ccccc23)NC1=O [compound 210, Ac-[3-(4-piperidinyl)-Ala]-S-D-D-AllyG(4)-(1Nal)-(t-Bu-Ala)-[PAF(DOTA)]-(2Nal)-N-AllyG(4)-(aMe-P)-F-D-CONH2] (Ac-[Ala(piperidin-4-yl)]SD[dAllylGly][1Nal][tBuAla][Phe(4-CH2NH2)](DOTA)[2Nal]N[AllylGly][αMeP]FD-NH2; staple (E) 4-10) | > 100 |  |
| CC(=O)N[C@@H](CC1CCNCC1)C(=O)N[C@@H](CO)C(=O)N[C@@H](CC(=O)O)C(=O)N[C@H]1C/C=C\C[C@H](C(=O)N2CCC[C@@]2(C)C(=O)N[C@@H](Cc2ccccc2)C(=O)N[C@@H](CC(=O)O)C(N)=O)NC(=O)[C@H](CC(N)=O)NC(=O)[C@H](Cc2ccc3ccccc3c2)NC(=O)[C@H](Cc2ccc(CNC(=O)CN3CCN(CC(=O)O)CCN(CC(=O)O)CCN(CC(=O)O)CC3)cc2)NC(=O)[C@H](CC(C)(C)C)NC(=O)[C@H](Cc2cccc3ccccc23)NC1=O [compound 211, Ac-[3-(4-piperidinyl)-Ala]-S-D-AllyG(4)-(1Nal)-(t-Bu-Ala)-[PAF(DOTA)]-(2Nal)-N-D-AllyG(4)-(aMe-P)-F-D-CONH2] (Ac-[Ala(piperidin-4-yl)]SD[AllylGly][1Nal][tBuAla][Phe(4-CH2NH2)](DOTA)[2Nal]N[dAllylGly][αMeP]FD-NH2; staple (Z) 4-10) | > 100 |  |
| CC(=O)N[C@@H](CC1CCNCC1)C(=O)N[C@@H](CO)C(=O)N[C@@H](CC(=O)O)C(=O)N[C@@H]1C/C=C/C[C@H](C(=O)N2CCC[C@@]2(C)C(=O)N[C@@H](Cc2ccccc2)C(=O)N[C@@H](CC(=O)O)C(N)=O)NC(=O)[C@H](CC(N)=O)NC(=O)[C@H](Cc2ccc3ccccc3c2)NC(=O)[C@H](Cc2ccc(CNC(=O)CN3CCN(CC(=O)O)CCN(CC(=O)O)CCN(CC(=O)O)CC3)cc2)NC(=O)[C@H](CC(C)(C)C)NC(=O)[C@H](Cc2cccc3ccccc23)NC1=O [compound 212, Ac-[3-(4-piperidinyl)-Ala]-S-D-D-AllyG(4)-(1Nal)-(t-Bu-Ala)-[PAF(DOTA)]-(2Nal)-N-D-AllyG(4)-(aMe-P)-F-D-CONH2] (Ac-[Ala(piperidin-4-yl)]SD[dAllylGly][1Nal][tBuAla][Phe(4-CH2NH2)](DOTA)[2Nal]N[dAllylGly][αMeP]FD-NH2; staple (E) 4-10) | > 100 |  |
| CC(=O)N[C@@H](CO)C(=O)N[C@@](C)(CC(=O)O)C(=O)N[C@H]1CCCC[C@@H](C(=O)N2CCC[C@@]2(C)C(=O)N[C@@H](Cc2ccccc2)C(=O)N[C@@H](CC(=O)O)C(N)=O)NC(=O)[C@H](CC(N)=O)NC(=O)[C@H](Cc2ccc3ccccc3c2)NC(=O)[C@H](Cc2ccc(CNC(=O)CN3CCN(CC(=O)O)CCN(CC(=O)O)CCN(CC(=O)O)CC3)cc2)NC(=O)[C@H](CC(C)(C)C)NC(=O)[C@H](Cc2cccc3ccccc23)NC1=O [compound 213, Ac-S-(aMe-Asp)-AllyG(4)*-(1Nal)-(t-Bu-Ala)-[PAF(DOTA)]-(2Nal)-N-AllyG(4)*-(aMe-P)-F-D-CONH2] | 0.419 |  |
| Ac-(Chg)-S-D-C(3)-(1Nal)-(THPG)-Q-W-N-C(3)-(aMe-P)-F-D-D-Lys(DOTA)-CONH2 [compound 128] |  | slow kon |
